Laboratory results as given in patent US20060009520A1, “Retinoid-based methods for altering macrophage cholesterol” (priority 2004, published 2006).

Columns and labels:
FXR = molecular target: T1, FXR (Mus musculus, UniProt Q60641); settings: cited from earlier work
T1 sequence (Q60641 1-488): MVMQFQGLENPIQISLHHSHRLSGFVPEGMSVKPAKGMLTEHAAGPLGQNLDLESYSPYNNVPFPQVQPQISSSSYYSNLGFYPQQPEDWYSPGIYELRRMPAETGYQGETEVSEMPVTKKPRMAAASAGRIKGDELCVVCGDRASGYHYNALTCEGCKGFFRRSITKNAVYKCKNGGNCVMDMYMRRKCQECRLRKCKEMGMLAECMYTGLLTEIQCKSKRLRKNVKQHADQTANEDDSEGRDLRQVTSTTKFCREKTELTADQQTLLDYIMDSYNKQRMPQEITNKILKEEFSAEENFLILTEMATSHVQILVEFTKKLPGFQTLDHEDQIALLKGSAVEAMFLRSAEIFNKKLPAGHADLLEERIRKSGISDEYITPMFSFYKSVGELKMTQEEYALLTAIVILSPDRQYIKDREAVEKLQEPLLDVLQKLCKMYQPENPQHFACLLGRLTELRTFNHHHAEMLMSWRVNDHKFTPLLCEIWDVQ

[1] = Plasma and hepatic lipid analysis; type: in vivo, mouse; settings: mice; for Hepatic lipid Cholesterol / Hepatic lipid Triglycerides / Plasma lipid Cholesterol / Plasma lipid Triglycerides: 24 h
Procedure: Mice were fasted for 3 h before blood collection. Plasma was separated by centrifugation and kept at −80° C. until lipid analysis. Liver tissue samples (50 to 75 mg) were homogenized in PBS. Lipids were then extracted with chloroform-methanol (2/1 [vol/vol]) and redissolved in isopropanol. Triglyceride and cholesterol were measured in plasma and in the liver lipid extracts by using commercial kits (Wako Chemicals, Neusse Germany).

ABCA1 protein = assay: Western blot of ABCA1 protein in mouse peritoneal macrophages; type: cell-based; settings: 24 h
Procedure: Protein extracts from macrophages were prepared by lysing the cells in modified radioimmunoprecipitation assay buffer (50 mM Tris, 150 mM NaCl, 1 mM EDTA. 1% Triton X-100) containing a protease inhibitor cocktail (Complete EDTA Free; Roche). Protein content in the extracts was determined by using the DC protein assay (Bio-Rad, Hercules, Calif.). Equal amounts of protein (40 to 50 μg) were separated by electrophoresis with 4 to 15% acrylamide gradient gels (Bio-Rad) and then transferred to nitrocellulose membrane (Trans-Blot Transfer Medium; Bio-Rad). Membranes were probed with anti-ABCA1 antibody (Novus Biologicals, Littleton, Colo.) and anti-β-actin antibody (Sigma) according to the manufacturer's recommendations. Immunoblots were developed by using a chemiluminescent detection system (Super Signal West Pico chemiluminescent substrate; Pierce, Rockford, Ill.).

C/C(=C\c1ccc(C(=O)O)cc1)c1ccc2c(c1)C(C)(C)CCC2(C)C [TTNPB, 4-[E-2-5,6.7.8-tetrahydro-5,5,8,8-tetramethyl-2-naphthalenyl-l-propenyl]benzoic acid]
FXR activation (FXR): activates FXR at relatively high concentrations | Hepatic lipid Cholesterol ([1]; 1 mg/kg intraperitoneally): 1.43 ± 0.07 μg/mg of tissue | Hepatic lipid Triglycerides ([1]; 1 mg/kg intraperitoneally): 11.57 ± 4.05 μg/mg of tissue | Plasma lipid Cholesterol ([1]; 1 mg/kg intraperitoneally): 64.1 ± 8.0 mg/dL | Plasma lipid Triglycerides ([1]; 1 mg/kg intraperitoneally): 35.1 ± 4.0 mg/dL | Hepatic lipid Cholesterol ([1]; 10 mg/kg intraperitoneally): 1.31 ± 0.20 μg/mg of tissue | Hepatic lipid Triglycerides ([1]; 10 mg/kg intraperitoneally): 9.25 ± 1.98 μg/mg of tissue | Plasma lipid Cholesterol ([1]; 10 mg/kg intraperitoneally): 58.0 ± 4.9 mg/dL | Plasma lipid Triglycerides ([1]; 10 mg/kg intraperitoneally): 33.1 ± 3.1 mg/dL | effect on hepatic triglyceride content ([1]; intraperitoneal): did not result in an increase | effect on triglyceride levels in plasma ([1]; intraperitoneal, higher doses): significant reduction | ABCA1 protein levels (ABCA1 protein): accumulation of ABCA1 protein
